Values of other authors, collected in patent publication US20040127531A1, “Adhesive coated sheet for dermal delivery of a selective cyclooxygenase-2 inhibitor” (priority 2002, published 2004).

How the values were obtained:
COX-1 = COX-1 (Homo sapiens, UniProt P23219)
COX-2 = target: T1, COX-2 (Homo sapiens, UniProt P35354)
T1 sequence (P35354 18-604): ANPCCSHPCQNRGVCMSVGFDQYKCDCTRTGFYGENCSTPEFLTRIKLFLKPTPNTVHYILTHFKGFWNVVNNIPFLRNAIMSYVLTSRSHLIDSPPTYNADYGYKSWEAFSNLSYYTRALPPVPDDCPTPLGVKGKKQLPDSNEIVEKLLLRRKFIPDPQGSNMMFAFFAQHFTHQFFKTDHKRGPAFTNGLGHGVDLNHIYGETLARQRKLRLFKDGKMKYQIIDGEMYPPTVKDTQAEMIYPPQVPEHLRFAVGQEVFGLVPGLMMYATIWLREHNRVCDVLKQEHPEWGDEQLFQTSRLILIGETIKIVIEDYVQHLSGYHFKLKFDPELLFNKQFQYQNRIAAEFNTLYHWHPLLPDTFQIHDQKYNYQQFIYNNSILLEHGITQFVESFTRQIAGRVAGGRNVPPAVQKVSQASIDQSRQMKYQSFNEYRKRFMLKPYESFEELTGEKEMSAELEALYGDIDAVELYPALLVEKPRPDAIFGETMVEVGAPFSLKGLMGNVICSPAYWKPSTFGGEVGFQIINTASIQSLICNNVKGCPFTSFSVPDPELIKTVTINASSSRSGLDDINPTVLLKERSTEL

Sequence of COX-1 (P23219 24-599): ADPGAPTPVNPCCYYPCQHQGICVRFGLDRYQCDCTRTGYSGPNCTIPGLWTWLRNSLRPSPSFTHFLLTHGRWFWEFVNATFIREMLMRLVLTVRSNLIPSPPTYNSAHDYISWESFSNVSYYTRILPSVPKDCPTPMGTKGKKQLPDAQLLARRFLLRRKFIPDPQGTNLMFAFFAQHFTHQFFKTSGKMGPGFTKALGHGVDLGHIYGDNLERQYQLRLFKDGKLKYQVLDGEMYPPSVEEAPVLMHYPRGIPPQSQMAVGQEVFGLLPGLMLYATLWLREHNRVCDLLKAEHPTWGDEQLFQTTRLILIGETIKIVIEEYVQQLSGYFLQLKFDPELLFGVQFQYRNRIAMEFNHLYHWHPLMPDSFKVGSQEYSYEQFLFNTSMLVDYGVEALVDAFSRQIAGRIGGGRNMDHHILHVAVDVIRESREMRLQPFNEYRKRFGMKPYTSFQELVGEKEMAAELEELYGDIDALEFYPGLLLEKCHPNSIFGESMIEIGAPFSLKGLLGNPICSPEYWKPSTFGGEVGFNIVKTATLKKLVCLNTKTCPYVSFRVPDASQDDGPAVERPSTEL

in vitro inhibitory activity against COX-2 (COX-2) | Compound | in vitro inhibitory activity against COX-1 (COX-1)
weak | CCC(=O)NS(=O)(=O)c1ccc(-c2c(-c3ccccc3)noc2C)cc1 [Parecoxib, N-[[4-(5-methyl-3-phenylisoxazol-4-yl)phenyl]sulfonyl]propanamide] | weak
 | Cc1onc(-c2ccccc2)c1-c1ccc(S(N)(=O)=O)cc1 [valdecoxib, 4-[5-methyl-3-phenylisoxazol-4-yl]benzenesulfonamide] | weak
